Data published in PubChem BioAssay AID256 (DTP/NCI, 2004).
Where “and” joins values, the source holds several entries; their conditions need not be identical. Identical values can stand only once. Inconclusive results and toxic doses are left out. How the source made its calls: active means survival T/C of 150% or more; inactive means T/C below 125% in these data.

System: CD2F1 mice, L1210 leukemia ip, survival T/C
Test: NCI In Vivo Anticancer Drug Screen. Data for tumor model L1210 Leukemia (intraperitoneal) in CD2F1 (CDF1) mice
Conditions: higher = longer survival
Outline: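 Implant tumor; dose compound or vehicle; measure endpoint in both groups; report treated divided by control.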

[1] = endpoint: mean survival time, dose: 100.0 mg/kg/injection, schedule: Q04DX003 (ip), vehicle: Klucel (hydroxypropylcellulose) (HPC)
[2] = endpoint: mean survival time, dose: 100.0 mg/kg/injection, schedule: Q04DX003 (ip), vehicle: saline
[3] = endpoint: mean survival time, dose: 200.0 mg/kg/injection, schedule: Q04DX003 (ip), vehicle: Klucel (hydroxypropylcellulose) (HPC)
[4] = endpoint: mean survival time, dose: 200.0 mg/kg/injection, schedule: Q04DX003 (ip), vehicle: saline
[5] = endpoint: mean survival time, dose: 400.0 mg/kg/injection, schedule: Q04DX003 (ip), vehicle: Klucel (hydroxypropylcellulose) (HPC)
[6] = endpoint: mean survival time, dose: 200.0 mg/kg/injection, schedule: Q01DX001 (ip), vehicle: saline with Tween-80
[7] = endpoint: mean survival time, dose: 400.0 mg/kg/injection, schedule: Q01DX001 (ip), vehicle: saline with Tween-80
[8] = endpoint: mean survival time, dose: 50.0 mg/kg/injection, schedule: Q01DX009 (ip), vehicle: Klucel (hydroxypropylcellulose) (HPC)
[9] = endpoint: mean survival time, dose: 100.0 mg/kg/injection, schedule: Q01DX009 (ip), vehicle: Klucel (hydroxypropylcellulose) (HPC)
[10] = endpoint: mean survival time, dose: 200.0 mg/kg/injection, schedule: Q01DX009 (ip), vehicle: Klucel (hydroxypropylcellulose) (HPC)
[11] = endpoint: mean survival time, dose: 50.0 mg/kg/injection, schedule: Q01DX009 (ip), vehicle: saline with Tween-80
[12] = endpoint: mean survival time, dose: 100.0 mg/kg/injection, schedule: Q01DX009 (ip), vehicle: saline with Tween-80
[13] = endpoint: mean survival time, dose: 100.0 mg/kg/injection, schedule: Q04DX003 (ip), vehicle: saline with Tween-80
[14] = endpoint: mean survival time, dose: 200.0 mg/kg/injection, schedule: Q01DX009 (ip), vehicle: saline with Tween-80
[15] = endpoint: mean survival time, dose: 200.0 mg/kg/injection, schedule: Q04DX003 (ip), vehicle: saline with Tween-80
[16] = endpoint: mean survival time, dose: 400.0 mg/kg/injection, schedule: Q04DX003 (ip), vehicle: saline with Tween-80
[17] = endpoint: mean survival time, dose: 400.0 mg/kg/injection, schedule: Q01DX009 (ip), vehicle: saline with Tween-80

Measured: T/C

O=C(c1ccccc1)C1(Br)CCCCC1
inactive: endpoint: mean survival time, dose: 50.0 mg/kg/injection, schedule: Q04DX003 (ip), vehicle: saline 95 % of control | [1] 101 % of control | [2] 96 % of control | [3] 96 % of control | [4] 93 % of control | [5] 106 % of control | endpoint: mean survival time, dose: 400.0 mg/kg/injection, schedule: Q04DX003 (ip), vehicle: saline 98 % of control

O=C(O)c1ccc(Cl)c(N=C/C=C/c2ccccc2)c1
inactive: endpoint: mean survival time, dose: 75.0 mg/kg/injection, schedule: Q04DX003 (ip), vehicle: saline 97 % of control | endpoint: mean survival time, dose: 150.0 mg/kg/injection, schedule: Q04DX003 (ip), vehicle: saline 100 % of control | endpoint: mean survival time, dose: 300.0 mg/kg/injection, schedule: Q04DX003 (ip), vehicle: saline 100 % of control

NNC(=O)CCCCCCCCCCCCCCO
inactive: [6] 87 % of control | [7] 90 % of control

Cc1cc(N(CCCl)CCCl)ccc1C=Nc1cccnc1
inactive: [8] 101 % of control | [9] 106 % of control | [10] 110 % of control | endpoint: mean survival time, dose: 400.0 mg/kg/injection, schedule: Q01DX009 (ip), vehicle: Klucel (hydroxypropylcellulose) (HPC) 112 % of control

Cc1cc(=O)oc2cc(O)ccc12
inactive: endpoint: mean survival time, dose: 100.0 mg/kg/injection, schedule: Q01DX001 (ip), vehicle: saline with Tween-80 94 % of control | [6] 98 % of control | [7] 87 % of control

CC(=O)OCC1OC(n2ccc(O)cc2=O)C(OC(C)=O)C1OC(C)=O (centres undefined)
active: endpoint: median survival time, dose: 44.0 mg/kg/injection, schedule: Q01DX009 (ip), vehicle: saline + alcohol 154 % of control | endpoint: median survival time, dose: 67.0 mg/kg/injection, schedule: Q01DX009 (ip), vehicle: saline + alcohol 164 % of control | endpoint: median survival time, dose: 100.0 mg/kg/injection, schedule: Q01DX009 (ip), vehicle: saline + alcohol 174 % of control | endpoint: median survival time, dose: 150.0 mg/kg/injection, schedule: Q01DX009 (ip), vehicle: saline + alcohol 165 % of control

N#CN1CCOCC1
inactive: endpoint: mean survival time, dose: 100.0 mg/kg/injection, schedule: Q01DX009 (ip), vehicle: saline 101 % of control | [2] 91 % of control | endpoint: mean survival time, dose: 200.0 mg/kg/injection, schedule: Q01DX009 (ip), vehicle: saline 110 % of control | [4] 96 % of control

N#CC(=C1C=CC(=NO)C=C1)c1ccccc1
inactive: [11] 93 % of control | [12] 100 % of control | [13] 97 % of control | [14] 100 % of control | [15] 96 % of control

[NH2-].[NH2-].[NH2-].[NH2-].[NH2-].[NH2-].[Ru+6]
inactive: endpoint: mean survival time, dose: 12.5 mg/kg/injection, schedule: Q04DX002 (ip), vehicle: saline 86 % of control

CC(=O)Nc1ccc([N+](=O)[O-])cc1[N+](=O)[O-]
inactive: [13] 100 % of control | [15] 102 % of control

O=C(/C=C/c1ccc(Cl)cc1)/C=C/c1ccc(Cl)cc1
inactive: [8] 94 % of control | [9] 98 % of control | [10] 94 % of control

Cc1ccc(NC(=O)OCCSc2ccc(Cl)cc2)cc1C
inactive: [11] 96 % of control | [12] 92 % of control

COc1cccc2c1C(=O)c1c(O)c3c(c(O)c1C2=O)C[C@@](O)(C(C)=O)C[C@@H]3OC1CC(N(C)C)C(O)C(C)O1 (some centres undefined)
active: endpoint: mean survival time, dose: 4.0 mg/kg/injection, schedule: Q01DX009 (ip), vehicle: saline 161 % of control
inactive: endpoint: mean survival time, dose: 0.25 mg/kg/injection, schedule: Q01DX009 (ip), vehicle: saline 109 % of control | endpoint: mean survival time, dose: 0.5 mg/kg/injection, schedule: Q01DX009 (ip), vehicle: saline 120 % of control and 111 % of control | endpoint: mean survival time, dose: 0.5 mg/kg/injection, schedule: Q01DX009 (ip), vehicle: water 110 % of control | endpoint: mean survival time, dose: 1.0 mg/kg/injection, schedule: Q01DX009 (ip), vehicle: saline 105 % of control | endpoint: mean survival time, dose: 1.0 mg/kg/injection, schedule: Q01DX009 (ip), vehicle: water 119 % of control | endpoint: mean survival time, dose: 2.0 mg/kg/injection, schedule: Q01DX009 (ip), vehicle: saline 102 % of control | endpoint: mean survival time, dose: 8.0 mg/kg/injection, schedule: Q01DX009 (ip), vehicle: saline 88 % of control and 103 % of control | endpoint: mean survival time, dose: 8.0 mg/kg/injection, schedule: Q01DX009 (ip), vehicle: water 88 % of control

O=C(Nc1ccccc1SC(=O)c1ccccc1)c1ccccc1
inactive: [11] 91 % of control | [12] 87 % of control | [14] 91 % of control

O=C(Nc1ccc(Cl)c(Cl)c1)Sc1ccc(Cl)cc1
inactive: [13] 105 % of control

O=C1CCC(C(=O)O)=NN1
inactive: endpoint: mean survival time, dose: 12.5 mg/kg/injection, schedule: Q01DX009 (ip), vehicle: water 96 % of control | endpoint: mean survival time, dose: 25.0 mg/kg/injection, schedule: Q01DX009 (ip), vehicle: water 101 % of control | endpoint: mean survival time, dose: 50.0 mg/kg/injection, schedule: Q01DX009 (ip), vehicle: water 93 % of control | endpoint: mean survival time, dose: 100.0 mg/kg/injection, schedule: Q01DX009 (ip), vehicle: water 93 % of control | endpoint: mean survival time, dose: 200.0 mg/kg/injection, schedule: Q01DX009 (ip), vehicle: water 90 % of control

[NH-]NC(=S)[S-].[NH-]NC(=S)[S-].[Ni]
inactive: [13] 98 % of control | [15] 102 % of control | [16] 107 % of control

O=C(O)C(=O)O.[NH-]CC(O)CN(CC(O)CO)c1ccccc1.[Pt+2] (centres undefined)
inactive: endpoint: median survival time, dose: 10.0 mg/kg/injection, schedule: Q04DX003 (ip), vehicle: distilled water + Tween-80 100 % of control | endpoint: median survival time, dose: 20.0 mg/kg/injection, schedule: Q04DX003 (ip), vehicle: distilled water + Tween-80 98 % of control | endpoint: median survival time, dose: 40.0 mg/kg/injection, schedule: Q04DX003 (ip), vehicle: distilled water + Tween-80 101 % of control | endpoint: median survival time, dose: 80.0 mg/kg/injection, schedule: Q04DX003 (ip), vehicle: distilled water + Tween-80 102 % of control

OCCN(Cc1ccccc1)C(c1ccccc1)c1ccccc1
inactive: [1] 91 % of control | [3] 97 % of control | [5] 97 % of control

CC/C(=C(\c1ccccc1)c1ccc(OCCN(C)C)cc1)c1ccccc1
inactive: endpoint: median survival time, dose: 3.12 mg/kg/injection, schedule: Q01DX009 (ip), vehicle: suspension in saline 101 % of control | endpoint: median survival time, dose: 6.25 mg/kg/injection, schedule: Q01DX009 (ip), vehicle: suspension in saline 101 % of control | endpoint: median survival time, dose: 12.5 mg/kg/injection, schedule: Q01DX009 (ip), vehicle: suspension in saline 100 % of control | endpoint: median survival time, dose: 25.0 mg/kg/injection, schedule: Q01DX009 (ip), vehicle: saline with Tween-80 100 % of control | endpoint: median survival time, dose: 25.0 mg/kg/injection, schedule: Q01DX009 (ip), vehicle: suspension in saline 97 % of control | endpoint: median survival time, dose: 50.0 mg/kg/injection, schedule: Q01DX009 (ip), vehicle: saline with Tween-80 107 % of control

COC(=O)CC[S+](C)CCC(=O)OC
inactive: endpoint: mean survival time, dose: 7.5 mg/kg/injection, schedule: Q01DX009 (ip), vehicle: saline 94 % of control | endpoint: mean survival time, dose: 15.0 mg/kg/injection, schedule: Q01DX009 (ip), vehicle: saline 98 % of control | endpoint: mean survival time, dose: 30.0 mg/kg/injection, schedule: Q01DX009 (ip), vehicle: saline 90 % of control

CC(=O)Nc1ccccc1C#N
inactive: [12] 98 % of control | [14] 98 % of control | [17] 113 % of control

CNc1nc(SC)nc2c1cnn2C1OC(CO)C(O)C1O (centres undefined)
inactive: endpoint: median survival time, dose: 10.75 mg/kg/injection, schedule: Q01DX005 (ip), vehicle: saline with Tween-80 103 % of control | endpoint: median survival time, dose: 21.5 mg/kg/injection, schedule: Q01DX005 (ip), vehicle: saline with Tween-80 97 % of control | endpoint: median survival time, dose: 43.0 mg/kg/injection, schedule: Q01DX005 (ip), vehicle: saline with Tween-80 107 % of control | endpoint: median survival time, dose: 86.0 mg/kg/injection, schedule: Q01DX005 (ip), vehicle: saline with Tween-80 100 % of control

NC(=O)c1cc([N+](=O)[O-])ccc1NN=NCCCl
active: endpoint: mean survival time, dose: 50.0 mg/kg/injection, schedule: Q01DX001 (ip), vehicle: Klucel (hydroxypropylcellulose) (HPC) 150 % of control | endpoint: mean survival time, dose: 100.0 mg/kg/injection, schedule: Q01DX001 (ip), vehicle: Klucel (hydroxypropylcellulose) (HPC) 183 % of control | endpoint: mean survival time, dose: 200.0 mg/kg/injection, schedule: Q01DX001 (ip), vehicle: Klucel (hydroxypropylcellulose) (HPC) 231 % of control
inactive: endpoint: mean survival time, dose: 25.0 mg/kg/injection, schedule: Q01DX001 (ip), vehicle: Klucel (hydroxypropylcellulose) (HPC) 112 % of control

CCOc1ccc(N=[N+]([O-])c2ccc(OCC)cc2)cc1
inactive: [12] 90 % of control | [13] 96 % of control | [14] 97 % of control | [15] 98 % of control | [17] 96 % of control | [16] 101 % of control
